Test results reported in article PMC5447021, “TNF Lectin-Like Domain Restores Epithelial Sodium Channel Function in Frameshift Mutants Associated with Pseudohypoaldosteronism Type 1B” (Frontiers in Immunology, 2017).
“Also recorded” adds a separate entry of the source.

How the values were obtained:
α-hENaC = target: T1, α-hENaC (Homo sapiens, UniProt P37088); parameters: method as in PMID 24077967; settings: α-hENaC alone, control current 55.3 ± 5.5 pA, mean ± S.E.; cited from earlier work
T1 construct: expressed in transfected cells; host or cells: HEK-293
T1 sequence (P37088 1-669): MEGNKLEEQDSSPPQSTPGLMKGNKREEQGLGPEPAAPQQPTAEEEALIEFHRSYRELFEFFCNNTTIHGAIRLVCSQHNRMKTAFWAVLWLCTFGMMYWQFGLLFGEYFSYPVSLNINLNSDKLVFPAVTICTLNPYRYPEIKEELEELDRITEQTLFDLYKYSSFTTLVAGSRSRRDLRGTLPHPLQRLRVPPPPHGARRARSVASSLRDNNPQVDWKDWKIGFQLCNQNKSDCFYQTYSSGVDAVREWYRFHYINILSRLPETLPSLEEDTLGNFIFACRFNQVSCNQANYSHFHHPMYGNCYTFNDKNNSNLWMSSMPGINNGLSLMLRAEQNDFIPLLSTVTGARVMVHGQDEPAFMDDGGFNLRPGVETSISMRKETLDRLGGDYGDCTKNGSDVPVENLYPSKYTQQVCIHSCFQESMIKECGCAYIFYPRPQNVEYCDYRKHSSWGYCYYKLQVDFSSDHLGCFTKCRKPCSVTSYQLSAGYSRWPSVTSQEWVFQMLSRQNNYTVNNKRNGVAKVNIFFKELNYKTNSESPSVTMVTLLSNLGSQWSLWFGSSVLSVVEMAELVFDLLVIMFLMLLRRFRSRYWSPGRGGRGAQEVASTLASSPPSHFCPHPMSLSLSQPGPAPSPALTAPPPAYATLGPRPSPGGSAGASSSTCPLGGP

[1] = system: α-ENaC frameshift PHA1B mutants; experiment: Whole-cell patch clamp, all α-ENaC PHA1B frameshift mutants + WT βγ; format: cell-based, human; settings: for Restoration of current by solnatide (words): all 10 frameshift mutants, 200 nM solnatide (Figure 4B), n = 3–11
Protocol: Point mutations of α-, β-, γ- and δ-hENaC and PHA1B frameshift mutations of α-hENaC were prepared with the QuikChange Lightning Site-Directed Mutagenesis Kit (Agilent Technologies, CA, USA). Mutagenic primers were designed individually with the Primer Design Program provided on the producer’s website or for the frameshift mutations the same base changes as reported in patients (see Table 2) were performed. Primers were ordered from Sigma-Aldrich, Vienna, Austria.
HEK-293 cells were transfected 1 day after cell seeding using X-tremeGENE HP DNA transfection reagent (Roche Diagnostics, Mannheim, Germany) according to the manufacturer’s protocol. A set of WT or mutant αβγ- or δβγ-hENaC, or α-, β-, γ-, or δ-hENaC alone was used, and the ratio of DNA to transfection reagent was 1:3. The expression was highest 48–72 h after transfection.
Electrophysiological experiments were performed as described in detail by Shabbir et al. ([16]). […] Currents were recorded with the patch clamp method in the whole-cell mode. The chamber contained 1 ml of the bath solution of the following composition (in mM): 145 NaCl, 2.7 KCl, 1.8 CaCl2, 2 MgCl2, 5.5 glucose, and 10 HEPES, adjusted to pH 7.4 with 1 M NaOH solution. Micropipettes were pulled from thin-walled borosilicate glass capillaries (Harvard Apparatus, Holliston, MA, USA) with a DMZ Zeitz Puller to obtain electrode resistances ranging from 2 to 5 MΩ. The pipette solution contained (in millimolars): 135 potassium methane sulfonate, 10 KCl, 6 NaCl, 1 Mg2ATP, 2 Na3ATP, 10 HEPES, and 0.5 EGTA, adjusted to pH 7.2 with 1 M KOH solution. Chemicals for pipette and bathing solutions were supplied by Sigma-Aldrich (Vienna, Austria). Electrophysiological measurements were carried out with an Axopatch 200B patch clamp amplifier (Axon Instruments, CA, USA). Capacity transients were canceled, and series resistance was compensated. Whole-cell currents were filtered at 5 kHz and sampled at 10 kHz. Data acquisition and storage were processed directly to a PC equipped with pCLAMP 10.2 software (Axon Instruments, CA, USA). […]

## C[C@@H]1NC(=O)CNC(=O)[C@H](CCC(=O)O)NC(=O)[C@@H]2CCCN2C(=O)[C@H]([C@@H](C)O)NC(=O)[C@H](CCC(=O)O)NC(=O)[C@H](CCCNC(=N)N)NC(=O)[C@H](CCC(N)=O)NC(=O)CNC(=O)[C@@H](N)CSSC[C@@H](C(=O)O)NC(=O)[C@H](Cc2ccc(O)cc2)NC(=O)[C@H](Cc2c[nH]c3ccccc23)NC(=O)[C@@H]2CCCN2C(=O)[C@H](CCCCN)NC(=O)[C@H](C)NC(=O)[C@H](CCC(=O)O)NC1=O [solnatide, L-cysteine, L-cysteinylglycyl-L-glutaminyl-L-arginyl-L-α-glutamyl-L-threonyl-L-prolyl-L-α-glutamylglycyl-L-alanyl-L-α-glutamyl-L-alanyl-L-lysyl-L-prolyl-L-tryptophyl-L-tyrosyl-, cyclic (1→17)-disulfide]
α-hENaC
  Maximal induced current, solnatide: 11.3 ± 6.2 pA
[1]
  Restoration of current by solnatide (words): up to or even higher than WT control current in absence of solnatide; also recorded: restored the amiloride-sensitive current in all these frameshift mutants to WT or higher levels
[1]; listed as Solnatide
  Restoration of current by solnatide (words): restored function in α-ENaC frameshift mutants to current density levels of wild type ENaC or higher
[1]; solnatide, frameshift mutants, HEK-293
  Concentration at which maximum current activation was reached: 200 nM
